# Measured values as given in patent US6914045B2, “Glycopeptide antibiotics” (Wyeth Holdings Corporation, priority 2001, dated 2005).
# Columns and labels:
# Enterococcus sp. = test: in vitro antibacterial evaluation, MIC by broth dilution; assay type: cell-based; details: broth dilution, 18 hours at 35° C.
# Procedure, shortened: (§1)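 Inoculum 5×10^5 CFU/mL; concentrations 64 to 0.06 μg/mL; MIC defined as lowest inhibitory level. Conducted by broth dilution under NCCLS guidelines.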
# Escherichia coli = test: as above; assay type: cell-based; details: 18 hours at 35° C.
# Procedure, shortened: as §1
# Staphylococcus sp. = test: as above; assay type: cell-based; details: broth dilution, 18 hours at 35° C.
# Procedure, shortened: as §1
# Streptococcus sp. = test: as above; assay type: cell-based; details: broth dilution, 18 hours at 35° C.
# Procedure, shortened: as §1
# [1] = tested on: Staphylococcus aureus-SMITH (GC 4543); test: acute lethal infection in mice; assay type: in vivo; details: acute lethal infection, female CD-1 mice, intraperitoneal challenge, intravenous 30 min. after infection, 7 day survival
# Procedure, shortened: (§2)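 Survival at 7 days, pooled from three independent tests, yields ED50 values. Treatment is intravenous, 30 min after ip infection of female CD-1 mice, using an inoculum lethal to untreated controls within 24-48 hr.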
# [2] = tested on: Streptococcus pneumoniae (GC 1894); test: acute lethal infection in mice; assay type: in vivo; details: female CD-1 mice, intraperitoneal challenge, intravenous 30 min. after infection, 7 day survival
# Procedure, shortened: as §2
# [3] = clinical pathology (serum clinical chemistry) in mice; assay type: in vivo; details: CD-1 mice, 20 mg/kg intravenously daily for 9 days, sera day 10
# Protocol: 20-day-old CD-1 mice were divided into a vehicle control group (5 mice) and a treatment group (5 mice). Samples of glycopeptide antibiotics were administered at 20 mg/kg intravenously daily for 9 days.
# [4] = anatomic pathology (histopathology of heart and kidney) in mice; assay type: in vivo; details: CD-1 mice, 20 mg/kg intravenously daily for 9 days, necropsy day 10, microscopic histopathology
# Protocol: Samples of tissues from necropsied mice were formalin-fixed, paraffin-embedded, sectioned, stained with hematoxylin and eosin, and examined microscopically. Histopathologic findings were recorded. These findings were subjectively graded on a scale corresponding to slight, mild, moderate, marked and severe as compared to untreated controls.
smiles,measurement,setting,value
"CC(c1ccccc1)C1NC(=O)CNC(=O)C(CO)NC(=O)C(C(O)C2CNC(=N)N2C2OC(CO)C(O)C(O)C2O)NC(=O)C(C(O)C2CNC(=N)N2)NC(=O)C(Cc2ccc(OC3OC(CO)C(OC4OC5COC(c6ccccc6)OC5C(O)C4O)C(O)C3O)cc2)NC1=O (centres unmarked) [Example 104, Cyclo[glycyl-3-methylphenylalanyl-O-[4-O-(4,6-O-benzylidenehexopyranosyl)hexopyranosyl]-tyrosyl-3-(2-iminoimidazolidin-4-yl)seryl-3-(3-hexopyranosyl-2-iminoimidazolidin-4-yl)-serylseryl]]",MIC Enterococcus avium (GC 4558),Enterococcus sp.; Enterococcus avium (GC 4558),2 to 4 µg/mL
same,MIC Enterococcus faecalis (ATCC 29212),Enterococcus sp.; Enterococcus faecalis (ATCC 29212),2 to 4 µg/mL
same,MIC Enterococcus faecalis (GC 2242),Enterococcus sp.; Enterococcus faecalis (GC 2242),2 µg/mL
same,MIC Enterococcus faecalis (GC 2691),Enterococcus sp.; Enterococcus faecalis (GC 2691),4 µg/mL
same,MIC Enterococcus faecalis (GC 3059),Enterococcus sp.; Enterococcus faecalis (GC 3059),4 µg/mL
same,MIC Enterococcus faecalis (GC 4552),Enterococcus sp.; Enterococcus faecalis (GC 4552),4 µg/mL
same,MIC Enterococcus faecalis (GC 4553),Enterococcus sp.; Enterococcus faecalis (GC 4553),4 µg/mL
same,MIC Enterococcus faecalis (GC 4554),Enterococcus sp.; Enterococcus faecalis (GC 4554),4 µg/mL
same,MIC Enterococcus faecalis (GC 6189),Enterococcus sp.; Enterococcus faecalis (GC 6189),2 µg/mL
same,MIC Enterococcus faecium (GC 2243),Enterococcus sp.; Enterococcus faecium (GC 2243),2 µg/mL
same,MIC Enterococcus faecium (GC 4556),Enterococcus sp.; Enterococcus faecium (GC 4556),2 to 4 µg/mL
same,MIC Enterococcus faecium (GC 4557),Enterococcus sp.; Enterococcus faecium (GC 4557),2 µg/mL
same,MIC Enterococcus faecalis (ATCC 29212),Enterococcus sp.; strain ATCC 29212,2 to 4 µg/mL
same,MIC Enterococcus faecalis (GC 2242),Enterococcus sp.; strain GC 2242,2 µg/mL
same,MIC Enterococcus faecium (GC 2243),Enterococcus sp.; strain GC 2243,2 µg/mL
same,MIC Enterococcus faecalis (GC 2691),Enterococcus sp.; strain GC 2691,4 µg/mL
same,MIC Enterococcus faecalis (GC 3059),Enterococcus sp.; strain GC 3059,4 µg/mL
same,MIC Enterococcus faecalis (GC 4552),Enterococcus sp.; strain GC 4552,4 µg/mL
same,MIC Enterococcus faecalis (GC 4553),Enterococcus sp.; strain GC 4553,4 µg/mL
same,MIC Enterococcus faecalis (GC 4554),Enterococcus sp.; strain GC 4554,4 µg/mL
same,MIC Enterococcus faecium (GC 4556),Enterococcus sp.; strain GC 4556,2 to 4 µg/mL
same,MIC Enterococcus faecium (GC 4557),Enterococcus sp.; strain GC 4557,2 µg/mL
same,MIC Enterococcus avium (GC 4558),Enterococcus sp.; strain GC 4558,2 to 4 µg/mL
same,MIC Enterococcus faecalis (GC 6189),Enterococcus sp.; strain GC 6189,2 µg/mL
same,MIC Escherichia coli (ATCC 25922),Escherichia coli; strain ATCC 25922,32 to 64 µg/mL
same,MIC Escherichia coli (GC 4559),Escherichia coli; strain GC 4559,16 to 32 µg/mL
same,MIC Escherichia coli (GC 4560),Escherichia coli; strain GC 4560,0.5 to 1 µg/mL
same,MIC Coagulase Negative Staphylococcus (GC 4547),Staphylococcus sp.,1 µg/mL
same,MIC Coagulase Negative Staphylococcus (GC 4548),Staphylococcus sp.,0.5 to 1 µg/mL
same,MIC Coagulase Negative Staphylococcus (GC 4549),Staphylococcus sp.,0.5 µg/mL
same,MIC Coagulase Negative Staphylococcus (GC 4551),Staphylococcus sp.,1 µg/mL
same,MIC Coagulase Negative Staphylococcus (GC 6257),Staphylococcus sp.,0.5 µg/mL
same,MIC Staphylococcus aureus (ATCC 29213),Staphylococcus sp.,1 µg/mL
same,MIC Staphylococcus aureus (GC 1131),Staphylococcus sp.,2 µg/mL
same,MIC Staphylococcus aureus (GC 3051),Staphylococcus sp.,1 µg/mL
same,MIC Staphylococcus aureus (GC 3053),Staphylococcus sp.,1 µg/mL
same,MIC Staphylococcus aureus (GC 4541),Staphylococcus sp.,1 µg/mL
same,MIC Staphylococcus aureus (GC 4542),Staphylococcus sp.,0.5 µg/mL
same,MIC Staphylococcus aureus (GC 4544),Staphylococcus sp.,1 µg/mL
same,MIC Staphylococcus aureus (GC 4545),Staphylococcus sp.,0.5 to 1 µg/mL
same,MIC Staphylococcus aureus-SMITH (GC 4543),Staphylococcus sp.,0.5 to 1 µg/mL
same,MIC Staphylococcus haemolyticus (GC 4546),Staphylococcus sp.,0.5 µg/mL
same,MIC Staphylococcus haemolyticus (GC 4546),Staphylococcus sp.; strain GC 4546,0.5 µg/mL
same,MIC Coagulase Negative Staphylococcus (GC 4547),Staphylococcus sp.; strain GC 4547,1 µg/mL
same,MIC Coagulase Negative Staphylococcus (GC 4548),Staphylococcus sp.; strain GC 4548,0.5 to 1 µg/mL
same,MIC Coagulase Negative Staphylococcus (GC 4549),Staphylococcus sp.; strain GC 4549,0.5 µg/mL
same,MIC Coagulase Negative Staphylococcus (GC 4551),Staphylococcus sp.; strain GC 4551,1 µg/mL
same,MIC Coagulase Negative Staphylococcus (GC 6257),Staphylococcus sp.; strain GC 6257,0.5 µg/mL
same,MIC Staphylococcus aureus-SMITH (GC 4543),Staphylococcus sp.; strain SMITH GC 4543,0.5 to 1 µg/mL
same,MIC Staphylococcus aureus (ATCC 29213),Staphylococcus sp.; strain ATCC 29213,1 µg/mL
same,MIC Staphylococcus aureus (GC 1131),Staphylococcus sp.; strain GC 1131,2 µg/mL
same,MIC Staphylococcus aureus (GC 3051),Staphylococcus sp.; strain GC 3051,1 µg/mL
same,MIC Staphylococcus aureus (GC 3053),Staphylococcus sp.; strain GC 3053,1 µg/mL
same,MIC Staphylococcus aureus (GC 4541),Staphylococcus sp.; strain GC 4541,1 µg/mL
same,MIC Staphylococcus aureus (GC 4542),Staphylococcus sp.; strain GC 4542,0.5 µg/mL
same,MIC Staphylococcus aureus (GC 4544),Staphylococcus sp.; strain GC 4544,1 µg/mL
same,MIC Staphylococcus aureus (GC 4545),Staphylococcus sp.; strain GC 4545,0.5 to 1 µg/mL
same,MIC Streptococcus agalactiae (GC 4564),Streptococcus sp.; Streptococcus agalactiae (GC 4564),<0.12 to 0.25 µg/mL
same,MIC Streptococcus pneumoniae (ATCC 6301),Streptococcus sp.; Streptococcus pneumoniae (ATCC 6301),<0.12 µg/mL
same,MIC Streptococcus pneumoniae (GC 1894),Streptococcus sp.; Streptococcus pneumoniae (GC 1894),<0.12 µg/mL
same,MIC Streptococcus pneumoniae (GC 4565),Streptococcus sp.; Streptococcus pneumoniae (GC 4565),<0.12 µg/mL
same,MIC Streptococcus pyogenes (GC 4563),Streptococcus sp.; Streptococcus pyogenes (GC 4563),<0.12 µg/mL
same,MIC Streptococcus pneumoniae (ATCC 6301),Streptococcus sp.; strain ATCC 6301,<0.12 µg/mL
same,MIC Streptococcus pneumoniae (GC 1894),Streptococcus sp.; strain GC 1894,<0.12 µg/mL
same,MIC Streptococcus pyogenes (GC 4563),Streptococcus sp.; strain GC 4563,<0.12 µg/mL
same,MIC Streptococcus agalactiae (GC 4564),Streptococcus sp.; strain GC 4564,<0.12 to 0.25 µg/mL
same,MIC Streptococcus pneumoniae (GC 4565),Streptococcus sp.; strain GC 4565,<0.12 µg/mL
same,"median effective dose (ED50), Staphylococcus aureus-SMITH (GC 4543)",[1],0.19 mg/kg
same,"median effective dose (ED50), Streptococcus pneumoniae (GC 1894)",[2],0.22 mg/kg
same,"Clinical Chemistry (Day 10) % of Control, AST",[3],+87%
same,"Clinical Chemistry (Day 10) % of Control, BUN",[3],+203%
same,"Clinical Chemistry (Day 10) % of Control, Creatinine",[3],+65%
same,"Anatomical Pathology (Day 10), Heart",[4],+++
same,"Anatomical Pathology (Day 10), Kidney",[4],+++
